Source: patent US20200069691A1, “HETEROCYCLIC COMPOUNDS AS HIV PROTEASE INHIBITORS” (Merck Sharp & Dohme Corp., priority 2016, published 2020)

The compounds below were run against T1, wild-type HIV-1 protease (Human immunodeficiency virus type 1 group M subtype B, UniProt P04585) (assay: Assay for Inhibition of Microbial Expressed HIV Protease (peptide substrate cleavage, LC-MS/MS readout)). Conditions: E. coli expressed wild-type HIV-1 protease, mean of at least two independent experiments, read-out: HIV Pr Enzyme HIV1 PR IC50.
T1 construct: Escherichia coli expressed wild-type HIV-1 protease protein
Type: biochemical
Method in brief: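 Cleavage of Val-Ser-Gln-Asn-(β-naphthyl)Ala-Pro-Ile-Val (400 μM) by recombinant HIV-1 protease ([…]) ran 1 h at 30 °C after a 30 min room-temperature inhibitor preincubation in 50 mM sodium acetate pH 5.5. Product peak areas by LC-MS/MS gave inhibition; values average at least two independent runs.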

How did the IC50 turn out when `N=C1NC(CCC2CC2)(c2cc(F)cc(F)c2)C(=O)N1Cc1ccc(C(F)(F)F)c(C(=O)N2CCn3c(nnc3C(F)(F)F)C2)c1` (stereo not shown) [Compound 82, 5-(2-cyclopropylethyl)-5-(3,5-difluorophenyl)-2-imino-3-[4-(trifluoromethyl)-3-{[3-(trifluoro-methyl)-5,6-dihydro-[1,2,4]triazolo-[4,3-a]pyrazin-7(8H)-yl]carbonyl}-benzyl]imidazolidin-4-one] was run?
The IC50 was 13.1 nM.

With `N=C1NC(c2ccccc2)(c2ccccc2)C(=O)N1Cc1cccc(C(=O)N2CCn3cc(C(F)(F)F)nc3C2)c1` [Compound 349, 2-imino-5,5-diphenyl-3-(3-{[2-(trifluoromethyl)-5,6-dihydroimidazo-[1,2-a]pyrazin-7(8H)-yl]carbonyl}-benzyl)imidazolidin-4-one] as the compound, how does the IC50 read?
Its IC50 is 84.2 nM.

For `COC(=O)N1CCN(C(=O)c2cc(CN3C(=N)NC(c4ccc(F)cc4)(c4ccc(F)cc4)C3=O)ccc2Cl)CC1` [Compound 381, methyl 4-[(5-{[4,4-bis(4-fluorophenyl)-2-imino-5-oxoimidazolidin-1-yl]methyl}-2-chlorophenyl)carbonyl] piperazine-1-carboxylate], which IC50 is on record?
Its IC50 is 12.4 nM.

For `N=C1NC(c2ccccc2)(c2ccccc2)C(=O)N1Cc1cccc(C(=O)N2CCN(c3ccccn3)CC2)c1` [Compound 307, 2-imino-5,5-diphenyl-3-{3-[(4-pyridin-2-ylpiperazin-1-yl)carbonyl]benzyl}-imidazolidin-4-one], which IC50 is on record?
The IC50 was 47.7 nM.

Which IC50 does the source give for `Cc1noc2ccc(-c3ncc4c(n3)CN(C(=O)c3cc(CN5C(=N)N[C@](CCCC(F)(F)F)(c6ccc(F)cc6)C5=O)ccc3C(F)(F)F)C4)cc12` [Compound 64, (5R)-5-(4-fluorophenyl)-2-imino-3-[3-{[2-(3-methyl-1,2-benzisoxazol-5-yl)-5,7-dihydro-6H-pyrrolo[3,4-d]pyrimidin-6-yl]carbonyl}-4-(trifluoromethyl)benzyl]-5-(4,4,4-trifluorobutyl)imidazolidin-4-one] here?
Its IC50 is 7.09 nM.

How did the IC50 turn out when `CS(=O)(=O)CCn1cc(-c2ncc3c(n2)CN(C(=O)c2cc(CN4C(=N)N[C@](CCCC(F)(F)F)(c5ccc(F)cc5)C4=O)ccc2C(F)(F)F)C3)cn1` [Compound 17, (5R)-5-(4-fluorophenyl)-2-imino-3-{3-[(2-{1-[2-(methylsulfonyl)ethyl]-1H-pyrazol-4-yl}-5,7-dihydro-6H-pyrrolo[3,4-d]pyrimidin-6-yl)carbonyl]-4-(trifluoromethyl)-benzyl}-5-(4,4,4-trifluorobutyl)-imidazolidin-4-one] was run?
The IC50 was 1.99 nM.

With `COC(=O)N1CCN(C(=O)c2cccc([C@@H](C)N3C(=N)N[C@](CC(C)C)(c4ccccc4)C3=O)c2)CC1` [Compound 279, methyl 4-[(3-{(1R)-1-[2-imino-4-(2-methylpropyl)-5-oxo-4-phenylimidazolidin-1-yl]ethyl}phenyl)carbonyl] piperazine-1-carboxylate] as the compound, how does the IC50 read?
The IC50 was 30.5 nM.

`COc1ccc2c(c1)CCN(C(=O)c1cc(CN3C(=N)NC(c4ccc(F)cc4)(c4ccc(F)cc4)C3=O)ccc1C(F)(F)F)CC2` [Compound 165, 5.5-bis(4-fluorophenyl)-2-imino-3-{3-[(7-methoxy-1,2,4,5-tetrahydro-3H-3-benzazepin-3-yl)carbonyl]-4-(trifluoromethyl)benzyl} imidazolidin-4-one] was tested. Which IC50 did it give?
Its IC50 is 34.1 nM.

With `N=C1NC(c2ccc(F)cc2)(c2ccccn2)C(=O)N1Cc1cccc(C(=O)N2Cc3ccccc3C2)c1` (stereo not shown) [Compound 256, 3-[3-(1,3-dihydro-2H-isoindol-2-ylcarbonyl)benzyl]-5-(4-fluorophenyl)-2-imino-5-pyridin-2-ylimidazolidin-4-one] as the compound, how does the IC50 read?
The IC50 was 21.1 nM.

With `CC(C)CC[C@]1(c2ccccc2)NC(=N)N([C@@H]2CCCc3ccc(C(=O)N4Cc5nccnc5C4)cc32)C1=O` [Compound 124, (5R)-3-[(1R)-7-(5,7-dihydro-6H-pyrrolo[3,4-b]pyrazin-6-ylcarbonyl)-1,2,3,4-tetrahydro-naphthalen-1-yl]-2-imino-5-(3-methylbutyl)-5-phenylimidazolidin-4-one] as the compound, how does the IC50 read?
Its IC50 is 57 nM.

For `N=C1NC(c2ccc(F)cc2)(c2ccc(F)cc2)C(=O)N1Cc1cncc(C(=O)N2CCN(C(=O)OCc3ccccc3)CC2)c1` [Compound 395, benzyl 4-[(5-{[4,4-bis(4-fluorophenyl)-2-imino-5-oxoimidazolidin-1-yl]methyl}pyridin-3-yl)carbonyllpiperazine-1-carboxylate], which IC50 is on record?
Its IC50 is 97.4 nM.

Which IC50 does the source give for `CC(C)CC[C@]1(c2ccc(F)cc2)NC(=N)N(C(Cc2ccccc2)c2ccc(C(F)(F)F)c(C(=O)N3Cc4nccnc4C3)c2)C1=O` (stereo partly drawn) [Compound 4, (5R)-3-{1-[3-(5,7-dihydro-6H-pyrrolo[3,4-b]pyrazin-6-ylcarbonyl)-4-(trifluoromethyl)-phenyl]-2-phenylethyl}-5-(4-fluorophenyl)-2-imino-5-(3-methylbutyl)-imidazolidin-4-one] here?
The IC50 was 0.2 nM.

Which IC50 does the source give for `N=C1N[C@](C[C@@H]2CCOC2)(c2ccccc2)C(=O)N1Cc1ccc(C(F)(F)F)c(C(=O)N2Cc3nccnc3C2)c1` [Compound 128, (5R)-3-[3-(5,7-dihydro-6H-pyrrolo[3,4-b]pyrazin-6-ylcarbonyl)-4-(trifluoromethyl)-benzyl]-2-imino-5-phenyl-5-[(3R)-tetrahydrofuran-3-ylmethyl]-imidazolidin-4-one] here?
The IC50 was 67.9 nM.

For `CC(C)CCC1(c2ccccc2)NC(=N)N(Cc2cccc(C(=O)N3Cc4nccnc4C3)c2)C1=O` (stereo not shown) [Compound 249, 3-[3-(5,7-dihydro-6H-pyrrolo[3,4-b]pyrazin-6-ylcarbonyl)benzyl]-2-imino-5-(3-methylbutyl)-5-phenylimidazolidin-4-one], which IC50 is on record?
The IC50 was 18.1 nM.

How did the IC50 turn out when `CC1(C)CN(C(=O)c2cccc(CN3C(=N)NC(c4ccccc4)(c4ccccc4)C3=O)c2)Cc2nnc(C(F)(F)F)n21` [Compound 300, 3-(3-{[5,5-dimethyl-3-(trifluoromethyl)-5,6-dihydro[1,2,4]triazolo[4,3-a]pyrazin-7(8H)-yl]carbonyl}benzyl)-2-imino-5,5-diphenylimidazolidin-4-one] was run?
The IC50 was 44 nM.

How did the IC50 turn out when `N=C1N[C@](CCCC(F)(F)F)(c2ccc(F)cc2)C(=O)N1Cc1ccc(C(F)(F)F)c(C(=O)N2Cc3cnc(C(F)(F)F)nc3C2)c1` [Compound 73, (5R)-5-(4-fluorophenyl)-2-imino-5-(4,4,4-trifluorobutyl)-3-[4-(trifluoromethyl)-3-{[2-(trifluoro-methyl)-5,7-dihydro-6H-pyrrolo-[3,4-d]pyrimidin-6-yl]carbonyl}-benzyl]imidazolidin-4-one] was run?
The IC50 was 9.29 nM.

`N=C1N[C@](CCCC(F)(F)F)(c2ccc(F)cc2)C(=O)N1Cc1ccc(C(F)(F)F)c(C(=O)N2Cc3cnc(-c4cc(F)cc(F)c4)nc3C2)c1` [Compound 121, (5R)-3-[3-{[2-(3,5-difluorophenyl)-5,7-dihydro-6H-pyrrolo[3,4-d]pyrimidin-6-yl]carbonyl}-4-(trifluoromethyl)benzyl]-5-(4-fluorophenyl)-2-imino-5-(4,4,4-trifluorobutyl)imidazolidin-4-one] was tested. Which IC50 did it give?
Its IC50 is 44.3 nM.

For `N=C1NC(c2ccccc2)(c2ccccc2)C(=O)N1Cc1cccc(C(=O)N2Cc3[nH]nc(C(F)(F)F)c3C2)c1` [Compound 184, 2-imino-5,5-diphenyl-3-(3-{[3-(trifluoromethyl)-4,6-dihydropyrrolo[3,4-c]pyrazol-5(1H)-yl]carbonyl}benzyl) imidazolidin-4-one], which IC50 is on record?
Its IC50 is 2.74 nM.

Which IC50 does the source give for `COc1nnc2n1CCN(C(=O)c1cccc(CN3C(=N)NC(c4ccccc4)(c4ccccc4)C3=O)c1)C2` [Compound 340, 2-imino-3-{3-[(3-methoxy-5,6-dihydro[1,2,4]triazolo[4,3-a]pyrazin-7(8H)-yl)carbonyl]benzyl}-5,5-diphenylimidazolidin-4-one] here?
The IC50 was 76.4 nM.

`Cc1cccc(-c2ncc3c(n2)CN(C(=O)c2cc(CN4C(=N)N[C@](CCCC(F)(F)F)(c5ccc(F)cc5)C4=O)ccc2C(F)(F)F)C3)c1` [Compound 104, (5R)-5-(4-fluorophenyl)-2-imino-3-[3-{[2-(3-methylphenyl)-5,7-dihydro-6H-pyrrolo[3,4-d]pyrimidin-6-yl]carbonyl}-4-(trifluoromethyl)benzyl]-5-(4,4,4-trifluorobutyl)imidazolidin-4-one] was tested. Which IC50 did it give?
Its IC50 is 24.2 nM.

For `CC(C)CC1(c2ccccc2)NC(=N)N(Cc2cccc(C(=O)N3CCN(C(=O)c4ccco4)CC3)c2)C1=O` (stereo not shown) [Compound 268, 3-(3-{[4-(furan-2-ylcarbonyl)piperazin-1-yl]carbonyl}benzyl)-2-imino-5-(2-methylpropyl)-5-phenylimidazolidin-4-one], which IC50 is on record?
Its IC50 is 26.8 nM.

For `N=C1NC(c2ccccc2)(c2ccccc2)C(=O)N1Cc1cccc(C(=O)N2CCn3ccnc3C2)c1` [Compound 339, 3-[3-(5,6-dihydroimidazo[1,2-a]pyrazin-7(8H)-ylcarbonyl)benzyl]-2-imino-5,5-diphenylimidazolidin-4-one], which IC50 is on record?
The IC50 was 75.8 nM.

`N=C1NC(c2ccc(F)cc2)(c2ccc(F)cc2)C(=O)N1Cc1cncc(C(=O)N2Cc3ccccc3C2)c1` [Compound 394, 3-{[5-(1,3-dihydro-2H-isoindol-2-ylcarbonyl)pyridin-3-yl]methyl}-5,5-bis(4-fluorophenyl)-2-iminoimidazolidin-4-one] was tested. Which IC50 did it give?
The IC50 was 93.1 nM.

`CC(C)CCC1(c2ccccc2)NC(=N)N(Cc2ccc(C(F)(F)F)c(C(=O)N3Cc4cnc(C#N)nc4C3)c2)C1=O` (stereo not shown) [Compound 148, 6-{[5-{[2-imino-4-(3-methylbutyl)-5-oxo-4-phenylimidazolidin-1-yl]methyl}-2-(trifluoromethyl)phenyl]carbonyl}-6,7-dihydro-5H-pyrrolo[3,4-d]pyrimidine-2-carbonitrile] was tested. Which IC50 did it give?
Its IC50 is 5.21 nM.

`CC(C)CCC1(c2cccc(F)c2)NC(=N)N(Cc2cccc(C(=O)N3Cc4nccnc4C3)c2)C1=O` (stereo not shown) [Compound 265, 3-[3-(5,7-dihydro-6H-pyrrolo[3,4-b]pyrazin-6-ylcarbonyl)benzyl]-5-(3-fluorophenyl)-2-imino-5-(3-methylbutyl)imidazolidin-4-one] was tested. Which IC50 did it give?
Its IC50 is 24.8 nM.
